We go through two compounds from US12414940B2, “Method of treating malignant tumor by azabicyclic compound” (TAIHO PHARMACEUTICAL CO., LTD., priority 2018, dated 2025).

One data set has as its system rat eye tissue. The data set can be described thus: Histopathological study in rat eye tissue (hematoxylin and eosin, TUNEL). It counts as in vivo, Sprague-Dawley (SD) rats. Particulars: 10.0 mg/kg/day intravenous three times a week for 2 weeks; eyes collected 24 hours after final dose.
A short description of data set [1]: Quantification of plasma, tumor and retinal tissue exposure in tumor-bearing rats. Conditions: intravenous administration, tumor-bearing rats. It is filed as in vivo, F344 nude rats. As to the method:
After the administration, plasma, the retina, and tumor were collected according to a sampling schedule. The retina or tumor samples were homogenized in phosphate-buffered saline. The plasma and the homogenized samples were analyzed by liquid chromatography-tandem mass spectrometry or high-performance liquid chromatography. The pharmacokinetics of the compound 1 were calculated by use of the non-compartmental analysis method (Methods Mol Biol 2012; 929: 377-89).

The test system of data set [2] is progressive or unresectable GIST. Particulars: group given regorafenib, third-line treatment of progressive or unresectable GIST; cited from earlier work.

In the case of `CCNC(=O)c1noc(-c2cc(C(C)C)c(O)cc2O)c1-c1ccc(CN2CCOCC2)cc1` [NVP-AUY922, reference compound], in the data set on rat eye tissue, the “histopathological change in the outer nuclear layer of the retina” value is “marked degeneration and disarrangement”; the “number of TUNEL-positive apoptotic cells” value is on record as “considerably increase”. Moreover, the “presence in the retina 24 hours after administration” value in data set [1] is “detected from the retina even 24 hours after administration”.

For the compound `CNC(=O)c1cc(Oc2ccc(NC(=O)Nc3ccc(Cl)c(C(F)(F)F)c3)c(F)c2)ccn1` [regorafenib], in data set [2], the “median PFS” value is 4.8 month.
